Data reported in publication PMC8445934, “Transformation of tenofovir into stable ProTide nanocrystals with long-acting pharmacokinetic profiles” (Nature Communications, 2021).
In brackets after ≈: the same amount, converted by molar mass. Several values for one entry are separate records, joined by “and”; a condition that tells them apart may be missing. Equal entries are not always repeated. Where two headings read alike, the source gives them in different places.

What was measured:
[1] = system: human MDM; conditions: for prodrug measurements (uptake) / prodrug measurements (retention): 10 uM; for prodrug measurements (uptake): replicates; for prodrug measurements (retention): MDM
Protocol: Human MDMs were used for in vitro formulation assessments. MDM formulation uptake and retention studies were performed in flat-bottom, 12-well plates at a density of 1.2 × 10^6 cells/well, with each treatment completed in triplicate. […] At 2, 4, and 8 h after treatment, the cells were collected, processed, and analyzed for drug content by UPLC-UV/vis as previously described[12],[13],[56],[63]. […] Then, a culture medium (without drug) was added, and a half-media volume was replaced every other day. MDMs were collected at days 1, 5, 10, 15, and 30 after treatment, and then analyzed for intracellular drug content by UPC-UV/vis. […] MDMs were then collected immediately after the 8 h treatment and analyzed by an FEI Tecnai G2 Spirit transmission electron microscope as previously described[11],[12],[14].
Intracellular TFV-DP was extracted from human MDM or rat PBMCs as follows. […] At 2, 4, and 8 h after treatment, MDM was washed with PBS to remove the excess free drug. The cells were then collected in 70% MS-grade MeOH. TFV-DP from MDM was extracted as follows. Sep-Pak QMA cartridges (360 mg, 37–55 μm; Waters, Milford, MA) were used to separate TFV-DP from TFV- and mono-phosphate counterparts. The QMA cartridges were conditioned with 10 ml of 500 mM KCl, followed by 10 ml of 5 mM KCl. The sample (200 μL) was loaded onto the cartridges and washed with 12 ml of 75 mM KCl. The triphosphate (TP) fraction was eluted with 3 ml of 500 mM KCl. The pH of the TP fraction was lowered to 4.25 by adding 45 μl ammonium acetate buffer (pH 4, 10 mM) per ml eluate, and dephosphorylated by adding one unit of type XA sweet potato acid phosphatase (Sigma-Aldrich) per ml eluate (3 μL per sample) and incubating at 37 °C for 45 min. […] Samples were then loaded onto Waters OASIS HLB cartridges (60 mg, 30 μm; Waters, Milford, MA) pre-conditioned with 3 ml 100% methanol followed by 3 ml 1% TFA to remove salts. Salts were removed from the dephosphorylated samples with 3.5 ml of 1% TFA in water, then eluted with 1.5 ml 100% methanol and evaporated under vacuum. Once dry, the residue was stored at −80 °C until UPLC–MS/MS analyses. Samples were reconstituted in 100 μL of 10% MeOH, 90% 7.5 mM ammonium bicarbonate pH 7 in LC-MS grade water.
TFV-DP: Parent TFV was generated from TFV-DP during sample preparation and then subjected to UPLC-MS/MS analyses. The UPLC-MS/MS system was comprised of a Waters ACQUITY UPLC system coupled to a Waters Xevo TQ-XS triple quadrupole mass spectrometer (Waters, Milford, MA) with electrospray ionization (ESI) source. A CSH C18 analytical column (2.1 × 100 mm, 1.7 µm) equipped with a guard column (Waters, Milford, MA) at 30 °C was used for analyte separation. Samples were maintained at 4 °C during analysis. […] Mobile phase A consisted of 7.5 mM ammonium bicarbonate in water (MS grade, Fisher) with pH adjusted to 7.0 with glacial acetic acid (ACS grade, Sigma). Mobile phase B was 100% methanol (MS grade, Fisher). The flow rate was 0.22 mL/min. […] B was then held at 90% for 0.4 min before returning to initial conditions. Spectra were analyzed and quantified by MassLynx software version 4.1. Quantitation was based upon drug peak area to internal standard peak area ratios.

[2] = system: HIV-1ADA; assay: Antiretroviral EC50/IC50 in MDM by HIV-1 RT activity after HIV-1ADA challenge; type: cell-based; conditions: for RT activity (cpm/ mL): replicate wells
Protocol: To determine long-term antiretroviral efficacy following a single treatment, MDMs were plated in flat-bottom 12-well plates at a density of 1.2 × 10^6 cells/well. […] After treatment, the cells were washed twice with PBS and cultured in a fresh culture medium without drug with half-media replacement every other day. On days 1, 5, 10, 15, 20, 25, and 30 following treatment, the cells were infected with HIV-1ADA (a macrophage-tropic viral strain) at a multiplicity of infection of 0.1 infectious particles/cell for 8 h. MDM were cultured, and media samples collected on day 10 for the measurement of HIV reverse transcriptase (RT) activity as previously described[64],[65]. Cells were fixed in 2% PFA at each time point, and expression of the HIV-1p24 antigen was determined by immunocytochemistry. […] After 4 h of viral challenge, the cells were washed with PBS and given fresh media that contained the same concentrations of drug (0.00005–5,000 nM). Cell supernatants were collected 10 days later and assayed for HIV-1 RT activity as described above. Replicate studies were performed in CEM-ss CD4+ T-cell cultures. Specifically, cells were plated in 96-well plates, centrifuged at 650 × g for 5 min, and resuspended in (0.1–1,000 nM) drug-containing media for 1 h. The subsequent challenge with HIV-1NL4–3-eGFP, cell culture, sample collection, and determination of HIV-1 RT activity were performed as previously reported[13],[15].

[3] = Aqueous and 1-octanol solubility (excess drug, shaking 48 h, UPLC-UV); type: physicochemical; conditions: for solubility at 48 h: water, thermodynamic from solid
Protocol: Samples were centrifuged at 20,000 × g for 10 min to separate the solubilized drug from insoluble pellet. Aqueous supernatants were frozen, lyophilized, and then resuspended in MeOH. 1-octanol supernatants were prepared for analysis by dilution in MeOH and samples analyzed for drug content by UPLC-UV (Waters Acquity H Class).

[4] = system: HIV-1NL4–3-eGFP; assay: microbe, parasite or virus in culture; type: cell-based; conditions: for % GFP Positive: replicates
Description: Supplementary Fi gur e 9. ProTide Biological Characterizations. […]
(1 picture or pasted object on this page, not shown here)

CC(C)OC(=O)[C@H](C)N[P@](=O)(CO[C@H](C)Cn1cnc2c(N)ncnc21)Oc1ccccc1 [TAF, tenofovir alafenamide]
time by which no drug was detectable in MDM ([1]; 10 μM): ≤ 24 h | prodrug measurements (uptake) ([1]; 2 hours): 2.762 and 0.9713 and 2.037 | prodrug measurements (uptake) ([1]; 4 hours): 0.3098 | Intracellular prodrug concentration ([1]; 10 μM, 8 h): 0.38 μg/10^6 cells | prodrug measurements (uptake) ([1]; 8 hours): 0.3813 | prodrug measurements (retention) ([1]; day 1, replicates): 0 | prodrug measurements (retention) ([1]; day 5, replicates): 0 | prodrug measurements (retention) ([1]; day 10, replicates): 0 | prodrug measurements (retention) ([1]; day 15, replicates): 0 | prodrug measurements (retention) ([1]; day 30, replicates): 0 | EC50 ([2]; Human immunodeficiency virus 1, 240 h): 220 pM | RT activity (cpm/ mL) ([2]; drug concentration 5e-6 nM): 29.681 cpm/ mL and 30.024 cpm/ mL and 28.68 cpm/ mL | RT activity (cpm/ mL) ([2]; drug concentration 5e-5 nM): 35.114 cpm/ mL and 41.925 cpm/ mL and 38.687 cpm/ mL | RT activity (cpm/ mL) ([2]; drug concentration 0.0005 nM): 33.176 cpm/ mL and 39.763 cpm/ mL and 30.439 cpm/ mL | RT activity (cpm/ mL) ([2]; drug concentration 0.005 nM): 15.954 cpm/ mL and 19.78 cpm/ mL and 30.439 cpm/ mL | RT activity (cpm/ mL) ([2]; drug concentration 0.05 nM): 13.503 cpm/ mL and 38.469 cpm/ mL | RT activity (cpm/ mL) ([2]; drug concentration 0.5 nM): 16.77 cpm/ mL and 16.849 cpm/ mL and 12.873 cpm/ mL | RT activity (cpm/ mL) ([2]; drug concentration 5 nM): 0.361 cpm/ mL and 0.448 cpm/ mL and 0.415 cpm/ mL | RT activity (cpm/ mL) ([2]; drug concentration 50 nM): 0.452 cpm/ mL and 0.242 cpm/ mL | RT activity (cpm/ mL) ([2]; drug concentration 500 nM): 0.23 cpm/ mL and 0.324 cpm/ mL and 0.407 cpm/ mL | RT activity (cpm/ mL) ([2]; drug concentration 5000 nM): 0.233 cpm/ mL and 0.252 cpm/ mL and 0.245 cpm/ mL | water solubility, individual replicates ([3]; Figure 1C source data): 4.882 | solubility at 48 h ([3]; Figure 1C source data, read-out: water solubility, individual replicates): 6160 µg/mL (≈ 12.9 mM) | solubility at 48 h ([3]; room temperature, 48 h, read-out: aqueous solubilities): 5520 µg/mL (≈ 11.6 mM) | EC50 ([4]; Human immunodeficiency virus 1, CEM-SS): 330 pM | % GFP Positive ([4]; Log Drug Concentration (uM) 0): 0.094% and 0.243% and 0.132% | % GFP Positive ([4]; Log Drug Concentration (uM) -1): 0.087% and 0.114% and 0.038% | % GFP Positive ([4]; Log Drug Concentration (uM) -2): 0.071% and 0.098% (2×) | % GFP Positive ([4]; Log Drug Concentration (uM) -3): 0.109% and 0.099% and 0.2% | % GFP Positive ([4]; Log Drug Concentration (uM) -4): 39.441% and 35.802% and 35.047% | % GFP Positive ([4]; Log Drug Concentration (uM) -5): 32.55% and 34.185% and 34.763% | % GFP Positive ([4]; Log Drug Concentration (uM) -6): 38.186% and 33.243% and 31.663% | % GFP Positive ([4]; Log Drug Concentration (uM) -9): 36.164% and 40.34% and 38.638% | % GFP Positive ([4]; Log Drug Concentration (uM) -12): 43.7% and 40.475% and 37.429%
